Results on 10 compounds are retold here after patent US5795612A, “Aspartyldipeptideamine derivatives and sweetner” (Ajinomoto Co., Inc., priority 1995, dated 1998).

Residues, ends and D or L forms follow the SMILES beside them.

Data set [1] in a line: Sensory evaluation of sweetness potency relative to sugar. Conditions: for Sweetnes Potency: Table 1, compared with 4% aqueous sucrose solution; for Sweetness Potency (sugar=1): sensory evaluation.
Data set [2] in a line: Stability (half-life) heated to 70° C. in a phosphate buffer (pH=3). The format is physicochemical.

Take `COC[C@H](NC(=O)[C@H](NC(=O)[C@@H](N)CC(=O)O)C(C)C)c1ccc(O)cc1` [Example 4, α-L-aspartyl-D-valine (R)-α-methoxymethyl-p-hydroxybenzylamide]: in data set [1], the “Sweetnes Potency” value was found to be 1250 and the “Sweetness Potency (sugar=1)” value is given as 1250.
Regarding `COC(=O)[C@H](Cc1ccccc1)NC(=O)[C@@H](N)CC(=O)O` [aspartame] (H-Asp-Phe-OMe), the half-life result in data set [2] is reported as “approximately 1 days”.
In the case of `CC[C@H](NC(=O)[C@H](NC(=O)[C@@H](N)CC(=O)O)C(C)C)c1ccncc1` [Example 7, α-L-aspartyl-D-valine (S)-α-4-pyridylpropylamide], in data set [1], the “Sweetnes Potency” value came to 300 and the “Sweetness Potency (sugar=1)” value is recorded as “Approximately 300”.
As to `COC[C@H](NC(=O)[C@H](NC(=O)[C@@H](N)CC(=O)O)C(C)C)c1ccc(OC)cc1` [Example 8, α-L-aspartyl-D-valine (R)-α-methoxymethyl-p-methoxybenzylamide], in data set [1], the “Sweetnes Potency” value is reported as 250 and the “Sweetness Potency (sugar=1)” value was “Approximately 250”.
Take `CC[C@H](NC(=O)[C@@H](CC)NC(=O)[C@@H](N)CC(=O)O)c1ccc(O)cc1` [Example 1, α-L-aspartyl-D-α-aminobutyric acid (S)-α-ethyl-p-hydroxybenzylamide]: in data set [1], the “Sweetnes Potency” value is recorded as 2000 and the “Sweetness Potency (sugar=1)” value stood at 2000.
As to `CC[C@H](NC(=O)[C@H](NC(=O)[C@@H](N)CC(=O)O)C(C)C)c1ccc(O)cc1` [Example 3, α-L-aspartyl-D-valine (S)-α-ethyl-p-hydroxybenzylamide], in data set [1], the “Sweetnes Potency” value stood at 1500 and the “Sweetness Potency (sugar=1)” value worked out at 1500.
For `CC[C@H](NC(=O)[C@H](NC(=O)[C@@H](N)CC(=O)O)C(C)C)c1ccc(Cl)cc1` [Example 6, α-L-aspartyl-D-valine (S)-α-ethyl-p-chlorobenzylamide], in data set [1], the “Sweetnes Potency” value worked out at 1250 and the “Sweetness Potency (sugar=1)” value is on record as 1250.
`COCC(NC(=O)[C@H](NC(=O)[C@@H](N)CC(=O)O)C(C)C)c1ccco1` (mixture of isomers) [Example 9, α-L-aspartyl-D-valine (RS)-α-furyl-β-methoxyethylamide]: in data set [1], the “Sweetnes Potency” value is given as 200 and the “Sweetness Potency (sugar=1)” value is “Approximately 200”.
For `CC(C)[C@@H](NC(=O)[C@@H](N)CC(=O)O)C(=O)N[C@@H](C)c1ccc(O)cc1` [Example 5, α-L-aspartyl-D-valine (S)-α-methyl-p-hydroxybenzylamide], in that order: 1000 and 1000.
In the case of `CC[C@@H](NC(=O)[C@@H](N)CC(=O)O)C(=O)N[C@@H](COC)c1ccc(O)cc1` [Example 2, α-L-aspartyl-D-α-aminobutyric acid (R)-α-methoxymethyl-p-hydroxybenzylamide], in data set [1], the “Sweetnes Potency” value is given as 1500 and the “Sweetness Potency (sugar=1)” value turned out to be 1500.
